The experiment concerns the target T1, human NK3 receptor (Homo sapiens, UniProt P29371).
T1 construct: expressed in transfected cells; host or cells: HEK293 cells, transiently transfected; membranes
T1 sequence (P29371 1-465): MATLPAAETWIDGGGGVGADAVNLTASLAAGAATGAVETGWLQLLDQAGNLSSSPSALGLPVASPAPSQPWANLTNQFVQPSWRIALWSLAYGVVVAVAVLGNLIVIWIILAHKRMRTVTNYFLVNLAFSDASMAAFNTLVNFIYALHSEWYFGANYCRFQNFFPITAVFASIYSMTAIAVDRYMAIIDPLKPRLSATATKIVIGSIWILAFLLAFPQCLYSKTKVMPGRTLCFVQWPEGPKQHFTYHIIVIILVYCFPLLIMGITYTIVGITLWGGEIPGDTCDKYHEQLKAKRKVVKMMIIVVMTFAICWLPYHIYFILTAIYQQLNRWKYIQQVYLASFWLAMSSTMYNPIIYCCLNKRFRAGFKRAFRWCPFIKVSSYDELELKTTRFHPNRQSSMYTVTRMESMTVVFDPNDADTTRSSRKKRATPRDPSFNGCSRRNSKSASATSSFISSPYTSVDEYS
Put plainly: [3H]SR142801 competition binding assay. Here is the method: [^3H]SR142801 Competition Binding Assay
hNK3 receptor binding experiment were performed using [^3H]SR142801 (Catalog No. TRK1035, specific activity: 74.0 Ci/mmol, Amersham, GE Healthcare UK limited, Buckinghamshire, UK) and membrane isolated from HEK293 cells transiently expressing recombinant human NK3 receptor. After thawing, the membrane homogenates were centrifuged at 48,000×g for 10 min at 4° C., the pellets were resuspended in the 50 mM Tris-HCl, 4 mM MnCl2, 1 μM phosphoramidon, 0.1% BSA binding buffer at pH 7.4 to a final assay concentration of 5 μg protein/well. For inhibition experiments, membranes were incubated with [^3H]SR142801 at a concentration equal to KD value of radioligand and 10 concentrations of the inhibitory compound (0.0003-10 μM) (in a total reaction volume of 500 μl) for 75 min at room temperature (RT). At the end of the incubation, membranes were filtered onto unitfilter (96-well white microplate with bonded GF/C filter preincubated 1 h in 0.3% PEI+0.3% BSA, Packard BioScience, Meriden, Conn.) with a Filtermate 196 harvester (Packard BioScience) and washed 4 times with ice-cold 50 mM Tris-HCl, pH 7.4 buffer. Nonspecific binding was measured in the presence of 10 μM SB222200 for both radioligands. The radioactivity on the filter was counted (5 min) on a Packard Top-count microplate scintillation counter with quenching correction after addition of 45 μl of microscint 40 (Canberra Packard S.A., Zürich, Switzerland) and shaking for 1 h. Inhibition curves were fitted according to the Hill equation: y=100/(1+(x/IC50)^nH), where nH=slope factor using Excel-fit 4 software (Microsoft). IC50 values were derived from the inhibition curve and the affinity constant (Ki) values were calculated using the Cheng-Prussoff equation Ki=IC50/(1+[L]/KD) where [L] is the concentration of radioligand and KD is its dissociation constant at the receptor, derived from the saturation isotherm. All experiments were performed in duplicate and the mean±standard error (SEM) of the individual Ki values was calculated.

The mark [1] stands for this setting: hNK3 Ki, [3H]SR142801 displacement, membranes of HEK293 cells transiently expressing recombinant human NK3 receptor.
The mark [2] stands for this setting: [3H]SR142801 displacement, membranes of HEK293 cells transiently expressing recombinant human NK3 receptor, read-out: hNK3 Ki.

The structures appear in SMILES notation. Read-outs that look alike come from different tables or passages of the source.

Broadly, the Ki is the equilibrium dissociation constant of an inhibitor or competing ligand from its target. For the compound `CN1C(=O)OC2(CCN(CCC(C(=O)NCc3ccccc3OC(F)(F)F)c3ccc(Cl)c(Cl)c3)CC2)c2cc(F)ccc21` (centres unmarked) [Example 91, 2-(3,4-dichlorophenyl)-4-(6-fluoro-1-methyl-2-oxo-1,2-dihydro-1′H-spiro[3,1-benzoxazine-4,4′-piperidin]-1′-yl)-N-[2-(trifluoromethoxy)benzyl]butanamide], under setting [1], the Ki came to 0.0065 µM.

For `O=C1Nc2ccc(F)cc2C2(CCN(CCCC(C(=O)NCc3ccc(C(F)(F)F)cc3)c3ccc(Cl)c(Cl)c3)CC2)O1` (centres unmarked) [Example 135, 2-(3,4-dichlorophenyl)-5-(6-fluoro-2-oxo-1,2-dihydro-1′H-spiro[3,1-benzoxazine-4,4′-piperidin]-1′-yl)-N-[4-(trifluoromethyl)benzyl]pentanamide], the Ki under setting [2] came to 0.0903 µM.

For the compound `CN1C(=O)OC2(CCN(CCC(C(=O)NC(c3ccc(Cl)cc3)c3nccn3C)c3ccc(Cl)c(Cl)c3)CC2)c2cc(F)ccc21` (centres unmarked) [Example 88, N-[(4-chlorophenyl)(1-methyl-1H-imidazol-2-yl)methyl]-2-(3,4-dichlorophenyl)-4-(6-fluoro-1-methyl-2-oxo-1,2-dihydro-1′H-spiro[3,1-benzoxazine-4,4′-piperidin]-1′-yl)butanamide], the Ki amounted to 0.0722 µM.

`CN(Cc1ccc(Cl)cc1)C(=O)C(CCN1CCC2(CC1)OC(=O)N(C)c1ccc(F)cc12)c1ccc(Cl)c(Cl)c1` (centres unmarked) [Example 42, N-(4-chlorobenzyl)-2-(3,4-dichlorophenyl)-4-(6-fluoro-1-methyl-2-oxo-1,2-dihydro-1′H-spiro[3,1-benzoxazine-4,4′-piperidin]-1′-yl)-N-methylbutanamide] registered a Ki of 0.0008 µM.

Regarding `CN(CCc1ccccc1)C(=O)C(CCN1CCC2(CC1)OC(=O)Nc1ccc(F)cc12)c1ccc(Cl)c(Cl)c1` (centres unmarked) [Example 65, 2-(3,4-dichlorophenyl)-4-(6-fluoro-2-oxo-1,2-dihydro-1′H-spiro[3,1-benzoxazine-4,4′-piperidin]-1′-yl)-N-methyl-N-(2-phenylethyl)butanamide], the Ki under setting [2] was 0.0707 µM.

As to `CN1C(=O)OC2(CCN(CCC(C(=O)NCc3ccc(S(C)(=O)=O)cc3)c3ccc(Cl)c(Cl)c3)CC2)c2cc(F)ccc21` (centres unmarked) [Example 33, 2-(3,4-dichlorophenyl)-4-(6-fluoro-1-methyl-2-oxo-1,2-dihydro-1′H-spiro[3,1-benzoxazine-4,4′-piperidin]-1′-yl)-N-[4-(methylsulfonyl)benzyl]butanamide], the Ki under setting [1] was found to be 0.0547 µM.

For the compound `CN(CCc1ccccc1)C(=O)C(CCN1CCC2(CC1)OC(=O)N(C)c1ccc(F)cc12)c1ccc(Cl)c(Cl)c1` (centres unmarked) [Example 90, 2-(3,4-dichlorophenyl)-4-(6-fluoro-1-methyl-2-oxo-1,2-dihydro-1′H-spiro[3,1-benzoxazine-4,4′-piperidin]-1′-yl)-N-metyl-N-(2-phenylethyl)butanamide], the Ki came out at 0.008 µM.

Take `CN1C(=O)OC2(CCN(CCC(C(=O)NCc3cccc(OC(F)F)c3)c3ccc(Cl)c(Cl)c3)CC2)c2cc(F)ccc21` (centres unmarked) [Example 92, 2-(3,4-dichlorophenyl)-N-[3-(difluoromethoxy)benzyl]-4-(6-fluoro-1-methyl-2-oxo-1,2-dihydro-1′H-spiro[3,1-benzoxazine-4,4′-piperidin]-1′-yl)butanamide]: the Ki under setting [1] is 0.0028 µM.

On to `CN(Cc1cccc(C(F)(F)F)c1)C(=O)C(CCN1CCC2(CC1)OC(=O)Nc1ccc(F)cc12)c1ccc(F)cc1` (centres unmarked) [Example 58, 4-(6-fluoro-2-oxo-1,2-dihydro-1′H-spiro[3,1-benzoxazine-4,4′-piperidin]-1′-yl)-2-(4-fluorophenyl)-N-methyl-N-[3-(trifluoromethyl)benzyl]butanamide], for which, under setting [1], the inhibition constant Ki was found to be 0.0949 µM.

For `O=C1Nc2ccc(F)cc2C2(CCN(CCC(C(=O)NCc3ccc(F)cc3)c3ccc(Cl)c(Cl)c3)CC2)O1` (centres unmarked) [Example 81, 2-(3,4-dichlorophenyl)-N-(4-fluorobenzyl)-4-(6-fluoro-2-oxo-1,2-dihydro-1′H-spiro[3,1-benzoxazine-4,4′-piperidin]-1′-yl)-butanamide], under setting [1], the Ki turned out to be 0.0116 µM.

As to `O=C1Nc2ccc(F)cc2C2(CCN(CCC(C(=O)NCc3cccc(OC(F)F)c3)c3ccc(Cl)c(Cl)c3)CC2)O1` (centres unmarked) [Example 67, 2-(3,4-dichlorophenyl)-N-[3-(difluoromethoxy)benzyl]4-(6-fluoro-2-oxo-1,2-dihydro-1′H-spiro[3,1-benzoxazine-4,4′-piperidin]-1′-yl)butanamide], the Ki under setting [1] is 0.019 µM.

For `O=C1Nc2ccc(F)cc2C2(CCN(CCC(C(=O)NCc3ccc(Cl)cc3Cl)c3ccc(Cl)c(Cl)c3)CC2)O1` (centres unmarked) [Example 62, N-(2,4-dichlorobenzyl)-2-(3,4-dichlorophenyl)-4-(6-fluoro-2-oxo-1,2-dihydro-1′H-spiro[3,1-benzoxazine-4,4′-piperidin]-1′-yl)butanamide], under setting [2], the Ki is 0.01 µM.

For the compound `CN(Cc1ccc(N2CCOCC2)cc1)C(=O)C(CCN1CCC2(CC1)OC(=O)Nc1ccc(F)cc12)c1ccc(Cl)c(Cl)c1` (centres unmarked) [Example 70, 2-(3,4-dichlorophenyl)-4-(6-fluoro-2-oxo-1,2-dihydro-1′H-spiro[3,1-benzoxazine-4,4′-piperidin]-1′-yl)-N-methyl-N-(4-morpholin-4-ylbenzyl)butanamide], the Ki under setting [2] came out at 0.098 µM.

Take `CN(Cc1ccc(C(F)(F)F)cc1)C(=O)C(CCCN1CCC2(CC1)OC(=O)Nc1ccc(F)cc12)c1ccc(Cl)c(Cl)c1` (centres unmarked) [Example 121, 2-(3,4-dichlorophenyl)-5-(6-fluoro-2-oxo-1,2-dihydro-1′H-spiro[3,1-benzoxazine-4,4′-piperidin]-1′-yl)-N-methyl-N-[4-(trifluoromethyl)benzyl]pentanamide]: the Ki under setting [1] worked out at 0.0647 µM.

Consider `CN1C(=O)OC2(CCN(CCC(C(=O)NCc3ccc(-c4csnn4)cc3)c3ccc(Cl)c(Cl)c3)CC2)c2cc(F)ccc21` (centres unmarked) [Example 109, 2-(3,4-dichlorophenyl)-4-(6-fluoro-1-methyl-2-oxo-1,2-dihydro-1′H-spiro[3,1-benzoxazine-4,4′-piperidin]-1′-yl)-N-[4-(1,2,3-thiadiazol-4-yl)benzyl]butanamide], for which, under setting [2], the Ki amounted to 0.019 µM.

Turning to `COc1ccc(CNC(=O)C(CCN2CCC3(CC2)OC(=O)Nc2ccc(F)cc23)c2ccc(Cl)c(Cl)c2)cc1` (centres unmarked) [Example 82, 2-(3,4-dichlorophenyl)-4-(6-fluoro-2-oxo-1,2-dihydro-1′H-spiro[3,1-benzoxazine-4,4′-piperidin]-1′-yl)-N-(4-methoxybenzyl)butanamide], the Ki under setting [1] worked out at 0.0197 µM.

For the compound `CCN(Cc1ccc(C)cc1)C(=O)C(CCN1CCC2(CC1)OC(=O)N(C)c1ccc(F)cc12)c1ccc(Cl)c(Cl)c1` (centres unmarked) [Example 39, 2-(3,4-dichlorphenyl)-N-ethyl-4-(6-fluoro-1-methyl-2-oxo-1,2-dihydro-1′H-spiro[3,1-benzoxazine-4,4′-piperidin]-1′-yl)-N-(4-methylbenzyl)butanamide], the Ki under setting [1] stood at 0.0042 µM.

Compound `CN1C(=O)OC2(CCN(CCC(C(=O)NCc3ccc(-n4cccn4)cc3)c3ccc(Cl)c(Cl)c3)CC2)c2cc(F)ccc21` (centres unmarked) [Example 94, 2-(3,4-dichlorophenyl)-4-(6-fluoro-1-methyl-2-oxo-1,2-dihydro-1′H-spiro[3,1-benzoxazine-4,4′-piperidin]-1′-yl)-N-[4-(1H-pyrazol-1-yl)benzyl]butanamide] displayed a Ki of 0.0877 µM.

For `O=C1Nc2ccc(F)cc2C2(CCN(CCC(C(=O)NCc3ccc(Cl)cc3Cl)c3ccc(F)cc3)CC2)O1` (centres unmarked) [Example 47, N-(2,4-dichlorobenzyl)-4-(6-fluoro-2-oxo-1,2-dihydro-1′H-spiro[3,1-benzoxazine-4,4′-piperidin]-1′-yl)-2-(4-fluorophenyl)butanamide], the Ki under setting [1] came to 0.0827 µM.

For `O=C1Nc2ccc(F)cc2C2(CCN(CCC(C(=O)NCc3cccc(OC(F)(F)F)c3)c3ccc(Cl)c(Cl)c3)CC2)O1` (centres unmarked) [Example 78, 2-(3,4-dichlorophenyl)-4-(6-fluoro-2-oxo-1,2-dihydro-1′H-spiro[3,1-benzoxazine-4,4′-piperidin]-1′-yl)-N-[(3-trifluoromethoxy)benzyl]butanamide], under setting [1], the Ki amounted to 0.0154 µM.

The values above are taken from patent US7470684B2, “Spiropiperidine derivatives as NK3 antagonists” (Hoffmann-La Roche Inc., priority 2007, dated 2008).
